Experimental findings from patent publication US8637509B2, “Azaindazoles” (GlaxoSmithKline LLC, priority 2010, dated 2014) are described below.

T1 sequence (Q15910 whole entry): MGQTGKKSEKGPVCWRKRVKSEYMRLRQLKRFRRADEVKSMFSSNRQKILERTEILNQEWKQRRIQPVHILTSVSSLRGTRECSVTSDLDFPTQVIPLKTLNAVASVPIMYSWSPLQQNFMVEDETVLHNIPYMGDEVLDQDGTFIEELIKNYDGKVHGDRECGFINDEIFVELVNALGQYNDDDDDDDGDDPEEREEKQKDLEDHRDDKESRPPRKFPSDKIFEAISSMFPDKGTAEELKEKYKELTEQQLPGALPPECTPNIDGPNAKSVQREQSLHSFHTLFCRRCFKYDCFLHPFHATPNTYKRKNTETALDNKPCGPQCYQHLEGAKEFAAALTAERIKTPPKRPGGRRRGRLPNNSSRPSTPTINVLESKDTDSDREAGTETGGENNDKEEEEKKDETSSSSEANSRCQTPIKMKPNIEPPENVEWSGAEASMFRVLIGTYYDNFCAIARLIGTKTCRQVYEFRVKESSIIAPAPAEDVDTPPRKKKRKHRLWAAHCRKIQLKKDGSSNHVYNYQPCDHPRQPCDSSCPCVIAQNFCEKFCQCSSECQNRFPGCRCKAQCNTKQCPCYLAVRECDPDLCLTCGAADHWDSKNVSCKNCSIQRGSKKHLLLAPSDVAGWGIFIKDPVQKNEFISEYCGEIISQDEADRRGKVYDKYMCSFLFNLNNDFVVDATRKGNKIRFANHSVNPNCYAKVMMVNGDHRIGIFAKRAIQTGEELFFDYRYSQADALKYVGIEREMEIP
T1 sequence (O75530 whole entry partner): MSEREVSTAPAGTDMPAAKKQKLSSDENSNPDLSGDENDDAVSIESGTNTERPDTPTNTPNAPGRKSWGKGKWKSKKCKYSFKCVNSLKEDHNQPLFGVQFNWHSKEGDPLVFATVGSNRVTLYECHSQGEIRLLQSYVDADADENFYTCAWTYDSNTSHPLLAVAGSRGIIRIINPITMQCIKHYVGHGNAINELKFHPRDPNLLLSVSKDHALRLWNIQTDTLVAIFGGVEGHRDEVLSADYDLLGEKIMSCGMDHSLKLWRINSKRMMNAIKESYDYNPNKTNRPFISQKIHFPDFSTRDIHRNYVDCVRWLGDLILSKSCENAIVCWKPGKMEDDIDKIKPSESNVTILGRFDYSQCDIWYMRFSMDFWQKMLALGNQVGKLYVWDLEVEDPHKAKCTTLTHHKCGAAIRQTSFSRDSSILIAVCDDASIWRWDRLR
T1 sequence (Q15022 whole entry partner): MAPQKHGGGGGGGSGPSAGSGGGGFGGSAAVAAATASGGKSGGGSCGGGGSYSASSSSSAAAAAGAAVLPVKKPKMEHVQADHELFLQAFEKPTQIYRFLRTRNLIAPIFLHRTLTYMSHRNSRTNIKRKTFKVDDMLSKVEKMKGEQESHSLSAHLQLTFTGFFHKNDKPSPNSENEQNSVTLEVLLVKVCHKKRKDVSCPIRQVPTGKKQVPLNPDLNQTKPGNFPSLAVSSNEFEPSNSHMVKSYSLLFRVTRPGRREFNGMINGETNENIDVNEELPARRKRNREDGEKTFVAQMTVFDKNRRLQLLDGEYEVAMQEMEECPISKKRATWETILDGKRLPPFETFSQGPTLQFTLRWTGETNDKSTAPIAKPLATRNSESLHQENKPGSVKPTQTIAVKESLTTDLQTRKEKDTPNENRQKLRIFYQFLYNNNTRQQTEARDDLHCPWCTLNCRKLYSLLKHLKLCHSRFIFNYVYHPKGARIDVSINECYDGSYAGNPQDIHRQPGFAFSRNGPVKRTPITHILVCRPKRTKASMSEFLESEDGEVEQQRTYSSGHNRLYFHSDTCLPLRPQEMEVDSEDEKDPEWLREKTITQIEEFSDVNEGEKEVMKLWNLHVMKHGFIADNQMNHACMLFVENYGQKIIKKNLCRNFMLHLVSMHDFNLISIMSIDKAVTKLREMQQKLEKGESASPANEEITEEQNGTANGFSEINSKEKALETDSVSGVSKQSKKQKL

This assay addresses T1, EZH2 (Homo sapiens, UniProt Q15910).
T1 construct: GRITS37108
Nature of the assay: EZH2 methyltransferase SPA assay (3H-SAM, Hela nucleosomes). Conditions: read-out: IC50. Format: biochemical.
Description: • 1. […] Prepare 500 μM SAH quench solution in ddH20 with 5-10 drops of concentrated HCl to dissolve. • 5. Prepare 6 mg/ml RNA binding SPA beads (Perkin Elmer) suspended in 0.2 M Citric Acid, pH 2.2
Part C. […] Dispense 5 μL no enzyme control (assay buffer mix) to column 18 of plates. • 2. Dispense 5 μL of enzyme mix to the remaining wells in the plate. Centrifuge plate to mix and incubate at room temperature for 30 minutes. • 3. Dispense 5 μL of substrate mix to all wells to initiate the reactions. Centrifuge plate to mix and incubate at room temperature for 2 hours. • 4. […] Dispense 10 μL of 6 mg/ml RNA binding SPA beads prepared in 0.2 M citric acid, pH 2.2 using the Evolution instrument. Continuously shake the beads while adding to plates to prevent beads from settling. • 6. Seal the plates with Perkin Elmer top seals and allow the beads to equilibrate in the plate for at least 30 minutes at room temperature. • 7. […] Read plates in Microbeta after at least 5 hours incubation. Plates can be read immediately, but signal increases over time.
Reagent addition can be done manually or with automated liquid handler.
*The final DMSO concentration in this assay is 1%.
*The positive control is in column 6; negative control is in column 18.
For the compound `Cc1cc(C)c(CNC(=O)c2cc(N3CCNCC3)nc3c2cnn3C(C)C)c(=O)[nH]1` [Ex 28, N-[(4,6-Dimethyl-2-oxo-1,2-dihydro-3-pyridinyl)methyl]-1-(1-methylethyl)-6-(1-piperazinyl)-1H-pyrazolo[3,4-b]pyridine-4-carboxamide], the IC50 amounted to 348 nM.
`Cc1cc(C)c(CNC(=O)c2cc(-c3ccccc3C)nc3c2cnn3C(C)C)c(=O)[nH]1` [Ex 70, N-[(4,6-Dimethyl-2-oxo-1,2-dihydro-3-pyridinyl)methyl]-1-(1-methylethyl)-6-(2-methylphenyl)-1H-pyrazolo[3,4-b]pyridine-4-carboxamide]: the IC50 was determined as 1890 nM.
Then `Cc1cc(C)c(CNC(=O)c2cc(C3CC3)nc3c2c(C)nn3C2CCN(C)CC2)c(=O)[nH]1` [Ex 111, 6-Cyclopropyl-N-[(4,6-dimethyl-2-oxo-1,2-dihydro-3-pyridinyl)methyl]-3-methyl-1-(1-methyl-4-piperidinyl)-1H-pyrazolo[3,4-b]pyridine-4-carboxamide], with 367 nM; and `Cc1cc(C)c(CNC(=O)c2cc(-c3ccc4nonc4c3)nc3c2c(C)nn3C(C)C)c(=O)[nH]1` [Ex 90, 6-(2,1,3-Benzoxadiazol-5-yl)-N-[(4,6-dimethyl-2-oxo-1,2-dihydro-3-pyridinyl)methyl]-3-methyl-1-(1-methylethyl)-1H-pyrazolo[3,4-b]pyridine-4-carboxamide], with 173 nM; and `C=CCNc1cc(C(=O)NCc2c(C)cc(C)[nH]c2=O)c2cnn(C(C)C)c2n1` [Ex 5, N-[(4,6-Dimethyl-2-oxo-1,2-dihydro-3-pyridinyl)methyl]-1-(1-methylethyl)-6-(2-propen-1-ylamino)-1H-pyrazolo[3,4-b]pyridine-4-carboxamide], with 705 nM.
Then `Cc1cc(C)c(CNC(=O)c2cc(-c3ccc(S(C)(=O)=O)cc3)nc3c2cnn3C(C)C)c(=O)[nH]1` [Ex 119, N-[(4,6-Dimethyl-2-oxo-1,2-dihydro-3-pyridinyl)methyl]-1-(1-methylethyl)-6-[4-(methylsulfonyl)phenyl]-1H-pyrazolo[3,4-b]pyridine-4-carboxamide], with 333 nM; and `Cc1cc(C)c(CNC(=O)c2cc(-c3ccc(N4CCOCC4)nc3)nc3c2cnn3C(C)C)c(=O)[nH]1` [Ex 67, N-[(4,6-Dimethyl-2-oxo-1,2-dihydro-3-pyridinyl)methyl]-1-(1-methylethyl)-6-[6-(4-morpholinyl)-3-pyridinyl]-1H-pyrazolo[3,4-b]pyridine-4-carboxamide], with 58 nM; and `Cc1cc(C)c(CNC(=O)c2cc(C#CC(C)(C)O)nc3c2cnn3C(C)C)c(=O)[nH]1` [Ex 29, N-[(4,6-Dimethyl-2-oxo-1,2-dihydro-3-pyridinyl)methyl]-6-(3-hydroxy-3-methyl-1-butyn-1-yl)-1-(1-methylethyl)-1H-pyrazolo[3,4-b]pyridine-4-carboxamide], with 234 nM.
For `Cc1cc(C)c(CNC(=O)c2cc(-c3ccc4c(c3)NC(=O)C4)nc3c2cnn3C(C)C)c(=O)[nH]1` [Ex 78, N-[(4,6-Dimethyl-2-oxo-1,2-dihydro-3-pyridinyl)methyl]-1-(1-methylethyl)-6-(2-oxo-2,3-dihydro-1H-indol-6-yl)-1H-pyrazolo[3,4-b]pyridine-4-carboxamide], the IC50 was 43 nM.
Under `CCCc1cc(C)c(CNC(=O)c2cc(C3CC3)nc3c2cnn3C(C)C)c(=O)[nH]1` [Ex 7, 6-Cyclopropyl-1-(1-methylethyl)-N-[(4-methyl-2-oxo-6-propyl-1,2-dihydro-3-pyridinyl)methyl]-1H-pyrazolo[3,4-b]pyridine-4-carboxamide] stands 1300 nM; under `Cc1cc(C)c(CNC(=O)c2cc(NC3CCOCC3)nc3c2cnn3C(C)C)c(=O)[nH]1` [Ex 54, N-[(4,6-Dimethyl-2-oxo-1,2-dihydro-3-pyridinyl)methyl]-1-(1-methylethyl)-6-(tetrahydro-2H-pyran-4-ylamino)-1H-pyrazolo[3,4-b]pyridine-4-carboxamide], 514 nM; under `Cc1cc(C2CC2)c(CNC(=O)c2cc(-c3ccncc3)nc3c2cnn3C(C)C)c(=O)[nH]1` [Ex 18, N-[(4-Cyclopropyl-6-methyl-2-oxo-1,2-dihydro-3-pyridinyl)methyl]-1-(1-methylethyl)-6-(4-pyridinyl)-1H-pyrazolo[3,4-b]pyridine-4-carboxamide], 40 nM.
Under `Cc1cc(C)c(CNC(=O)c2cc(-c3ccc4[nH]nnc4c3)nc3c2cnn3C(C)C)c(=O)[nH]1` [Ex 76, 6-(1H-1,2,3-Benzotriazol-5-yl)-N-[(4,6-dimethyl-2-oxo-1,2-dihydro-3-pyridinyl)methyl]-1-(1-methylethyl)-1H-pyrazolo[3,4-b]pyridine-4-carboxamide] stands 82 nM.
As to `Cc1cc(C)c(CNC(=O)c2cc(C(C)(C)C)nc3c2c(C)nn3C(C)(C)C)c(=O)[nH]1` [Ex 118, 1,6-Bis(1,1-dimethylethyl)-N-[(4,6-dimethyl-2-oxo-1,2-dihydro-3-pyridinyl)methyl]-3-methyl-1H-pyrazolo[3,4-b]pyridine-4-carboxamide], the IC50 stood at 273 nM.
For the compound `Cc1cc(C)c(CNC(=O)c2cc(-c3ccnc(N)c3)nc3c2cnn3C(C)C)c(=O)[nH]1` [Ex 49, 6-(2-Amino-4-pyridinyl)-N-[(4,6-dimethyl-2-oxo-1,2-dihydro-3-pyridinyl)methyl]-1-(1-methylethyl)-1H-pyrazolo[3,4-b]pyridine-4-carboxamide], the IC50 was determined as 115 nM.
Regarding `COc1ccc(-c2cc(C(=O)NCc3c(C)cc(C)[nH]c3=O)c3cnn(C(C)C)c3n2)cn1` [Ex 68, N-[(4,6-Dimethyl-2-oxo-1,2-dihydro-3-pyridinyl)methyl]-1-(1-methylethyl)-6-[6-(methyloxy)-3-pyridinyl]-1H-pyrazolo[3,4-b]pyridine-4-carboxamide], the IC50 was 76 nM.
Then `Cc1cc(C)c(CNC(=O)c2cc(NCCO)nc3c2cnn3C(C)C)c(=O)[nH]1` [Ex 57, N-[(4,6-Dimethyl-2-oxo-1,2-dihydro-3-pyridinyl)methyl]-6-[(2-hydroxyethyl)amino]-1-(1-methylethyl)-1H-pyrazolo[3,4-b]pyridine-4-carboxamide], with 784 nM.
Then `Cc1cc(C)c(CNC(=O)c2cc(-c3ccnc(N4CCOCC4)c3)nc3c2cnn3C(C)C)c(=O)[nH]1` [Ex 66, N-[(4,6-Dimethyl-2-oxo-1,2-dihydro-3-pyridinyl)methyl]-1-(1-methylethyl)-6-[2-(4-morpholinyl)-4-pyridinyl]-1H-pyrazolo[3,4-b]pyridine-4-carboxamide], with 81 nM; and `CCCc1cc(C)c(CNC(=O)c2cc(-c3ccncc3)nc3c2cnn3C(C)C)c(=O)[nH]1` [Ex 9, 1-(1-Methylethyl)-N-[(4-methyl-2-oxo-6-propyl-1,2-dihydro-3-pyridinyl)methyl]-6-(4-pyridinyl)-1H-pyrazolo[3,4-b]pyridine-4-carboxamide], with 1310 nM.
Under `Cc1cc(C2CCCCC2)c(CNC(=O)c2cc(-c3ccncc3)nc3c2cnn3C(C)C)c(=O)[nH]1` [Ex 15, N-[(4-Cyclohexyl-6-methyl-2-oxo-1,2-dihydro-3-pyridinyl)methyl]-1-(1-methylethyl)-6-(4-pyridinyl)-1H-pyrazolo[3,4-b]pyridine-4-carboxamide] stands 179 nM.
Consider `Cc1cc(C)c(CNC(=O)c2cc(C3CC3)nc3c2c(C)nn3C(C)C2CC2)c(=O)[nH]1` (centres unmarked) [Ex 109, 6-Cyclopropyl-1-(1-cyclopropylethyl)-N-[(4,6-dimethyl-2-oxo-1,2-dihydro-3-pyridinyl)methyl]-3-methyl-1H-pyrazolo[3,4-b]pyridine-4-carboxamide], for which the IC50 stood at 207 nM.
Under `Cc1cc(C)c(CNC(=O)c2cc(Nc3ccncc3)nc3c2cnn3C(C)C)c(=O)[nH]1` [Ex 84, N-[(4,6-Dimethyl-2-oxo-1,2-dihydro-3-pyridinyl)methyl]-1-(1-methylethyl)-6-(4-pyridinylamino)-1H-pyrazolo[3,4-b]pyridine-4-carboxamide] stands 99 nM; under `Cc1cc(C)c(CNC(=O)c2cc(Oc3ccncc3)nc3c2cnn3C(C)C)c(=O)[nH]1` [Ex 4, N-[(4,6-Dimethyl-2-oxo-1,2-dihydro-3-pyridinyl)methyl]-1-(1-methylethyl)-6-(4-pyridinyloxy)-1H-pyrazolo[3,4-b]pyridine-4-carboxamide], 116 nM; under `Cc1cc(C)c(CNC(=O)c2cc(-c3ccccc3)nc3c2c(Br)nn3C(C)C)c(=O)[nH]1` [Ex 123, 3-Bromo-N-[(4,6-dimethyl-2-oxo-1,2-dihydro-3-pyridinyl)methyl]-1-(1-methylethyl)-6-phenyl-1H-pyrazolo[3,4-b]pyridine-4-carboxamide], 218 nM.
Then `Cc1cc(C)c(CNC(=O)c2cc(-c3cnc(N)nc3)nc3c2cnn3C(C)C)c(=O)[nH]1` [Ex 72, 6-(2-Amino-5-pyrimidinyl)-N-[(4,6-dimethyl-2-oxo-1,2-dihydro-3-pyridinyl)methyl]-1-(1-methylethyl)-1H-pyrazolo[3,4-b]pyridine-4-carboxamide], with 171 nM; and `Cc1cc(C)c(CNC(=O)c2cc(-c3cncc(S(C)(=O)=O)c3)nc3c2cnn3C(C)C)c(=O)[nH]1` [Ex 61, N-[(4,6-Dimethyl-2-oxo-1,2-dihydro-3-pyridinyl)methyl]-1-(1-methylethyl)-6-[5-(methylsulfonyl)-3-pyridinyl]-1H-pyrazolo[3,4-b]pyridine-4-carboxamide], with 112 nM.
Under `Cc1cc(C)c(CNC(=O)c2cc(NC3CCNCC3)nc3c2cnn3C(C)C)c(=O)[nH]1` [Ex 53, N-[(4,6-Dimethyl-2-oxo-1,2-dihydro-3-pyridinyl)methyl]-1-(1-methylethyl)-6-(4-piperidinylamino)-1H-pyrazolo[3,4-b]pyridine-4-carboxamide] stands 436 nM; under `Cc1cc(C)c(CNC(=O)c2cc(NCCNc3ccccn3)nc3c2cnn3C(C)C)c(=O)[nH]1` [Ex 95, N-[(4,6-Dimethyl-2-oxo-1,2-dihydro-3-pyridinyl)methyl]-1-(1-methylethyl)-6-{[2-(2-pyridinylamino)ethyl]amino}-1H-pyrazolo[3,4-b]pyridine-4-carboxamide], 489 nM.
In the case of `Cc1cc(C)c(CNC(=O)c2cc(Cl)nc3c2c(C)nn3C(C)C)c(=O)[nH]1` [Ex 2, 6-Chloro-N-[(4,6-dimethyl-2-oxo-1,2-dihydro-3-pyridinyl)methyl]-3-methyl-1-(1-methylethyl)-1H-pyrazolo[3,4-b]pyridine-4-carboxamide], the IC50 turned out to be 806 nM.
